Source: the supplement of paper PMC10949913

Key:
Conditions in all cases: 48 h
CU-ACC2 [1] = assay: AC50 viability; higher = less potent
How it was run: (§1)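 Cells from three adrenocortical carcinoma lines were seeded at 500–1,000 cells/well in 5 µL medium in 1,536-well plates. Each library compound was added as 23 nL at 11 concentrations, and after 48 h CellTiter-Glo was added for 15 minutes at room temperature before reading luminescence. Plate-wise normalisation to vehicle and empty-well controls preceded curve fitting. AC50 and area under the curve were calculated only for inhibitory or non-responding curve classes.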

CU-ACC1 = assay: area under concentration-response curve (viability) (AUC (a.u.)); higher = less active
How it was run: as §1

CU-ACC2 [2] = assay: as above
How it was run: as §1

NCI-H295R = assay: as above
How it was run: as §1

Row | Structure (SMILES) | AC50 viability (CU-ACC2 [1]) | area under concentration-response curve (CU-ACC1) | area under concentration-response curve (CU-ACC2 [2]) | area under concentration-response curve (NCI-H295R)
1 | CCOc1cc2ncc(C#N)c(Nc3ccc(OCc4ccccn4)c(Cl)c3)c2cc1NC(=O)/C=C/CN(C)C | 16.6 µM | 562 | 572 | 543
2 | OCc1ccc(-c2ccc(-c3ccc(CO)s3)o2)s1 | 37.2 µM | 507 | 532 | –
3 | Cc1cc(OCc2nnc(SC3CCCC3)n2-c2cccnc2)ccc1-c1ccc([S+](C)(=O)[O-])cc1 | 2.35 µM | 271 | 324 | 362
4 | C=C(C)[C@@H]1CCC(C)=C[C@H]1c1c(O)cc(CCCCC)cc1O | 18.6 µM | 467 | 489 | –
5 | CC(C)[C@H](CO)Nc1nc(Nc2cccc(Cl)c2)c2ncn(C(C)C)c2n1 | 29.5 µM | 551 | 591 | –
6 | Fc1ccc(-c2nc(-c3ccccc3F)[nH]c2-c2ccncc2)cc1 | 33.2 µM | 336 | 399 | –
7 | CC(C)(C)c1cc(NC(=O)Nc2ccc(-c3cn4c(n3)sc3cc(OCCN5CCOCC5)ccc34)cc2)no1 | 3.72 µM | 489 | 539 | 511
8 | CC(C)(C)OC(=O)CN(Cc1ccc(Cl)cc1)Cc1ccc([N+](=O)[O-])s1 | 37.2 µM | 410 | 479 | 405
9 | CN(C)C(=O)c1cc2cnc(Nc3ccc(N4CCNCC4)cn3)nc2n1C1CCCC1 | 33.2 µM | 434 | 439 | 474
10 | CCC1=C2CN3C(=O)\C4=C(/C=C3/C2=NC5=CC=C(O)C=C15)[C@@](O)(CC)C(=O)OC4 | 0.468 µM | 401 | 447 | 524
11 | COc1c(C)cnc(Cn2cnc3c(Cl)nc(N)nc32)c1C | 0.661 µM | 361 | 378 | –
12 | C=CC(=O)Nc1cccc(Nc2nc(Nc3ccc(OCCOC)cc3)ncc2F)c1 | 20.9 µM | – | 597 | 545
13 | [2H]C([2H])([2H])C(O)([C@@H](C)/C=C/[C@@H](C)[C@H]1CC[C@H]2/C(=C/C=C3C[C@@H](O)C[C@H](O)C3)CCC[C@]12C)C([2H])([2H])[2H] | 0.235 µM | 347 | 309 | –
14 | CN1CCN(CCOc2cc(OC3CCOCC3)c3c(Nc4c(Cl)ccc5c4OCO5)ncnc3c2)CC1 | 23.5 µM | 547 | 548 | –
15 | CC(C)n1cnc2c(NCCc3ccc(O)cc3)nc(-c3csc4ccccc34)nc21 | 9.34 µM | 335 | 325 | –
16 | CO[C@@H]1C(N(C)C(=O)c2ccccc2)C[C@H]2O[C@]1(C)n1c3ccccc3c3c4c(c5c6ccccc6n2c5c31)C(=O)NC4=O (stereo partly drawn) | 0.186 µM | 362 | 286 | –
17 | COc1ccc2c(c1)[C@]1(C[C@H]1c1ccc3c(/C=C/c4ccc(CN5C[C@@H](C)O[C@@H](C)C5)cc4)n[nH]c3c1)C(=O)N2 | 1.86 µM | 384 | 344 | –
18 | CC1(C)C(N(O)C(=O)Nc2ccc(Cl)cc2)N(c2ccc(Cl)cc2)C(=O)N1CC(=O)N/N=C/C=C/c1ccc([N+](=O)[O-])o1 (stereo not drawn) | 23.5 µM | 511 | 561 | –
19 | O=C(Nc1ccc([S+](=O)([O-])N2CCOCC2)cc1)c1cc(Cl)ccc1N[S+](=O)([O-])c1ccc(Cl)s1 | 18.6 µM | 481 | 530 | –
